For 51 compounds, IC50, Ki and ED50 results are on record in ChEMBL document CHEMBL1124807, “Syntheses and platelet aggregation inhibitory and antithrombotic properties of [2-[(omega-aminoalkoxy)phenyl]ethyl]benzenes” (J Med Chem, 1990).

Broadly, the IC50 is the concentration that inhibits the measured activity by half. One may read the Ki as a dissociation constant, usually derived from enzyme kinetics or from competition with a known ligand. Low values mean tighter binding, high ones weaker binding.

For the first experiment, the target named is T1, Serotonin 2 (5-HT2) receptor (Rattus norvegicus, UniProt P30994+P08909+P14842). The experiment in a line: Antagonistic activity against 5-hydroxytryptamine 2 receptor on rat frontal cortex membrane.
Conditions: not given
The experiment is classed as functional, tissue-based.
In turn, `COc1cccc(CCc2ccccc2OCCCCN(C)C)c1.Cl` returned an IC50 of 0.0622 µM.

`CN(C)CCCOc1ccccc1CCc1ccc(N(C)C)cc1.Cl` showed an IC50 of 0.0536 µM.

In the case of `CN(C)CCCOc1ccc(Cl)cc1CCc1ccccc1`, the IC50 was found to be 0.8814 µM.

`CN(C)CC(COc1ccccc1CCc1cccc(F)c1)OC(=O)CCC(=O)O` (centres undefined) had an IC50 of 0.1325 µM.

In the case of `CN(C)CCCCCOc1ccccc1CCc1ccccc1`, the IC50 came to 0.377 µM.

As for `CCCCN(C)CCCCOc1ccccc1CCc1ccccc1`, the IC50 was determined as 0.9746 µM.

Compound `CN(C)CCCCCCOc1ccccc1CCc1ccccc1` returned an IC50 of 0.1524 µM.

As for `CN(C)CC(O)COc1ccccc1CCc1ccccc1` (centres undefined), the 50% inhibitory concentration (IC50) was determined as 0.0548 µM.

Compound `COc1cccc(CCc2ccccc2OCC(O)CN(C)C)c1` (centres undefined) had an IC50 of 0.0125 µM.

In the case of `CN(C)CCCCOc1ccc(CCc2ccccc2)cc1`, the IC50 was 1.976 µM.

Compound `CN(C)CCCCOc1cccc(CCc2ccccc2)c1` gave a half-maximal inhibitory concentration (IC50) of 3.3283 µM.

Turning to `CN(C)CCOc1ccccc1CCc1ccccc1`, the IC50 is 0.0962 µM.

Turning to `CNCCCCOc1ccccc1CCc1ccccc1`, the IC50 stood at 0.1565 µM.

In turn, `CN(C)CCCOc1ccccc1CCc1ccccc1` had a half-maximal inhibitory concentration (IC50) of 0.0338 µM.

For the compound `CN(CCCCOc1ccccc1CCc1ccccc1)Cc1ccccc1`, the IC50 came out at 4.479 µM.

`CN(C)CCCCOc1ccccc1CCc1ccccc1` came in with a concentration for half-maximal inhibition (IC50) of 0.1154 µM.

Compound `COc1cccc(CCc2ccccc2OCC(CN(C)C)OC(=O)CCC(=O)O)c1.Cl` (centres undefined) [SARPOGRELATE HYROCHLORIDE] yielded an IC50 of 0.0513 µM.

The next experiment has as its target T1, Serotonin 2 (5-HT2) receptor. The experiment in a line: Inhibition of 5-hydroxytryptamine 2 induced vasoconstriction of rat caudal artery. The class given is tissue-based.
Conditions: not given
Turning to `COc1cccc(CCc2ccccc2OCCCCN(C)C)c1.Cl`, the Ki stood at 0.0131 µM.

Consider `CN(C)CCCOc1ccccc1CCc1ccc(N(C)C)cc1.Cl`, for which the Ki was determined as 0.0233 µM.

In turn, `CN(C)CCCOc1ccc(Cl)cc1CCc1ccccc1` yielded a Ki of 0.0257 µM.

On to `CN(C)CC(COc1ccccc1CCc1cccc(F)c1)OC(=O)CCC(=O)O` (centres undefined), for which the Ki was 0.0413 µM.

With `CN(C)CCCCCOc1ccccc1CCc1ccccc1`, the Ki is 0.0376 µM.

`CCCCN(C)CCCCOc1ccccc1CCc1ccccc1` registered a Ki of 0.0676 µM.

Turning to `CN(C)CCCCCCOc1ccccc1CCc1ccccc1`, the Ki amounted to 0.0749 µM.

The compound `CN(C)CC(O)COc1ccccc1CCc1ccccc1` (centres undefined) gave a Ki of 0.0139 µM.

Take `COc1cccc(CCc2ccccc2OCC(O)CN(C)C)c1` (centres undefined): the Ki worked out at 0.00116 µM.

`CN(C)CCCCOc1ccc(CCc2ccccc2)cc1` registered a Ki of 0.416 µM.

The compound `CN(C)CCCCOc1cccc(CCc2ccccc2)c1` displayed a Ki of 0.517 µM.

In turn, `CN(C)CCOc1ccccc1CCc1ccccc1` came in with a Ki of 0.00633 µM.

In the case of `CNCCCCOc1ccccc1CCc1ccccc1`, the Ki was determined as 0.0706 µM.

As to `CN(C)CCCOc1ccccc1CCc1ccccc1`, the Ki was found to be 0.00455 µM.

Take `CN(CCCCOc1ccccc1CCc1ccccc1)Cc1ccccc1`: the Ki stood at 0.198 µM.

Take `CN(C)CCCCOc1ccccc1CCc1ccccc1`: the Ki was 0.00978 µM.

Regarding `COc1cccc(CCc2ccccc2OCC(CN(C)C)OC(=O)CCC(=O)O)c1.Cl` (centres undefined) [SARPOGRELATE HYROCHLORIDE], the Ki came to 0.0178 µM.

For a further experiment, the system named is Mus musculus. The experiment in a line: In vivo antithrombotic activity in mice (po). The experiment is classed as functional. Particulars: read-out: PD50.
Regarding `CN(C)CCCOc1ccc(Cl)cc1CCc1ccccc1`, the ED50 was found to be 21 mg/kg.

On to `COc1cccc(CCc2ccccc2)c1OCCCCN(C)C`, for which the ED50 came out at 40 mg/kg.

Take `CN(C)CCCCOc1ccccc1CCc1ccccc1`: the ED50 turned out to be 26 mg/kg.

Another experiment has as its system Mus musculus. Description: In vivo antithrombotic activity in mice following p.o. administration. Particulars: po, read-out: PD50. The experiment is classed as functional.
Regarding `CN(C)CCCCOc1ccccc1CCc1ccc(F)cc1.Cl`, the ED50 was more than 50 mg/kg.

With `CN(C)CCCOc1ccccc1CCc1ccc(Cl)cc1.Cl`, the ED50 is more than 50 mg/kg.

`CN(C)CCCCOc1ccccc1CCc1cccc(F)c1.Cl`: the ED50 turned out to be 27 mg/kg.

`CN(C)CCCCOc1ccccc1CCc1ccccc1Cl.Cl`: the ED50 turned out to be 50 mg/kg.

`COc1ccccc1CCc1ccccc1OCCCCN(C)C.Cl`: the ED50 came to 45 mg/kg.

In the case of `COc1cccc(CCc2ccccc2OCCCCN(C)C)c1.Cl`, the ED50 worked out at 19 mg/kg.

On to `CN(C)CCCOc1ccccc1CCc1ccc(N(C)C)cc1.Cl`, for which the ED50 turned out to be 130 mg/kg.

Turning to `CN(C)CCCCOc1ccccc1CCc1cccc(Cl)c1.Cl`, the ED50 amounted to 27 mg/kg.

`CN(C)CC(COc1ccccc1CCc1cccc(F)c1)OC(=O)CCC(=O)O` (centres undefined): the ED50 was 27 mg/kg.

Take `CN(C)CCCOc1ccccc1CCc1ccc(Cl)c(Cl)c1`: the ED50 was found to be 94 mg/kg.

As for `CN(C)CC(COc1ccccc1CCc1ccccc1)OC(=O)CCC(=O)O` (centres undefined), the ED50 was 27 mg/kg.

For `COc1cccc(CCc2ccccc2OCC(O)CN(C)C)c1` (centres undefined), the ED50 worked out at 29 mg/kg.

With `CN(C)CC(COc1ccccc1CCc1cccc(Cl)c1)OC(=O)CCC(=O)O` (centres undefined), the ED50 is 27 mg/kg.

Take `CN(C)CC(COc1ccccc1CCc1ccccc1)OCCC(=O)O` (centres undefined): the ED50 amounted to 25 mg/kg.

Take `CN(C)CC(COc1ccccc1CCc1ccccc1)OCC(=O)O` (centres undefined): the ED50 came out at 24 mg/kg.

As to `COc1cccc(CCc2ccccc2OCC(CN(C)C)OC(=O)CCC(=O)O)c1.Cl` (centres undefined) [SARPOGRELATE HYROCHLORIDE], the ED50 is 24 mg/kg.

Turning to `Clc1ccccc1CN1CCc2sccc2C1` [TICLOPIDINE], the ED50 was 120 mg/kg.

The species entered for another experiment is Oryctolagus cuniculus. Description: In vitro inhibition of collagen induced platelet aggregation of rabbit platelet rich plasma.
Conditions: not given
The experiment is classed as functional.
`CC(=O)Oc1ccccc1C(=O)O` [ASPIRIN]: it took 23 µM to reach half-maximal inhibition (IC50).

The same experiment, now with this note: read-out: IC50.
For the compound `CN(C)CCCCOc1ccccc1CCc1ccc(F)cc1.Cl`, the IC50 was determined as 0.76 µM.

On to `CN(C)CCCOc1ccccc1CCc1ccc(Cl)cc1.Cl`, for which the IC50 is 0.54 µM.

With `CN(C)CCCCOc1ccccc1CCc1cccc(F)c1.Cl`, the 50% inhibitory concentration (IC50) was found to be 0.48 µM.

For the compound `CN(C)CCCCOc1ccccc1CCc1ccccc1Cl.Cl`, the 50% inhibitory concentration (IC50) turned out to be 0.5 µM.

For `CCOc1ccccc1CCc1ccccc1OCCCCN(C)C`, the IC50 came out at 0.9 µM.

On to `COc1ccccc1CCc1ccccc1OCCCCN(C)C.Cl`, for which the IC50 worked out at 0.6 µM.

As for `COc1cccc(CCc2ccccc2OCCCCN(C)C)c1.Cl`, the IC50 was 0.53 µM.

`CN(C)CCCOc1ccccc1CCc1ccc(N(C)C)cc1.Cl`: the IC50 is 0.31 µM.

For `CN(C)CCCCOc1ccccc1CCc1cccc(Cl)c1.Cl`, the IC50 is 0.53 µM.

With `O=C(O)C1CCN(CCCCOc2ccccc2CCc2ccccc2)CC1`, the IC50 stood at 6.2 µM.

For the compound `CN(C)CCCOc1ccc(Cl)cc1CCc1ccccc1`, the IC50 is 2.5 µM.

Take `CN(C)CC(COc1ccccc1CCc1cccc(F)c1)OC(=O)CCC(=O)O` (centres undefined): the IC50 came out at 1.2 µM.

For `CN(C)CCCCCOc1ccccc1CCc1ccccc1`, the IC50 amounted to 1.15 µM.

`Cc1ccccc1CCc1ccccc1OCCCCN(C)C`: the IC50 came to 1.2 µM.

As to `CCN(CC)CCCCOc1ccccc1CCc1ccccc1`, the IC50 was determined as 0.7 µM.

With `CN(C)CCCOc1ccccc1CCc1ccc(Cl)c(Cl)c1`, the IC50 was 0.58 µM.

As to `CCCCN(C)CCCCOc1ccccc1CCc1ccccc1`, the IC50 worked out at 3.2 µM.

In the case of `c1ccc(CCc2ccccc2OCCCCN2CCCCC2)cc1`, the IC50 was 2.4 µM.

Regarding `CN(C)CCCCCCOc1ccccc1CCc1ccccc1`, the IC50 came out at 1.7 µM.

Take `COc1cccc(CCc2ccccc2)c1OCCCCN(C)C`: the IC50 worked out at 2.3 µM.

`CN(CCCCOc1ccccc1CCc1ccccc1)c1ccccc1`: the IC50 is more than 50 µM.

In the case of `CN(C)CCCCOc1ccccc1CCc1ccccc1C(=O)O`, the IC50 was 1.5 µM.

In the case of `CN(C)CCCCOc1ccccc1CCc1ccccc1O`, the IC50 was 0.96 µM.

`CN(C)CC(COc1ccccc1CCc1ccccc1)OC(=O)CCC(=O)O` (centres undefined): the IC50 was 2.2 µM.

As to `CN(C)CC(O)COc1ccccc1CCc1ccccc1` (centres undefined), the IC50 is 1.2 µM.

As to `COc1cccc(CCc2ccccc2OCC(O)CN(C)C)c1` (centres undefined), the half-inhibitory concentration (IC50) was determined as 0.48 µM.

For `CN(CCO)CCCCOc1ccccc1CCc1ccccc1`, the IC50 stood at 1.4 µM.

For `CN(C)CC(COc1ccccc1CCc1cccc(Cl)c1)OC(=O)CCC(=O)O` (centres undefined), the IC50 was 0.8 µM.

For the compound `c1ccc(CCc2ccccc2OCCCCN2CCNCC2)cc1`, the IC50 is 2 µM.

For `CN(CCCCOc1ccccc1CCc1ccccc1)CCCC(=O)O`, the IC50 came out at 13 µM.

Turning to `OCCN1CCN(CCCCOc2ccccc2CCc2ccccc2)CC1`, the IC50 came to 2.2 µM.

On to `CN(C)CCCCOc1ccc(CCc2ccccc2)cc1`, for which the IC50 came to 3.4 µM.

On to `NC(=O)C1CCCN(CCCCOc2ccccc2CCc2ccccc2)C1` (centres undefined), for which the IC50 was determined as 1.4 µM.

For the compound `CN(C)CCCCOc1cccc(CCc2ccccc2)c1`, the IC50 came to 19 µM.

With `CN(C)CC(COc1ccccc1CCc1ccccc1)OCCC(=O)O` (centres undefined), the IC50 came out at 3.3 µM.

`CN(C)CC(COc1ccccc1CCc1ccccc1)OCC(=O)O` (centres undefined): the 50% inhibitory concentration (IC50) stood at 3.6 µM.

In the case of `NCCCCOc1ccccc1CCc1ccccc1`, the IC50 was more than 50 µM.

Take `CN(C)CCOc1ccccc1CCc1ccccc1`: the IC50 was 0.67 µM.

As to `CNCCCCOc1ccccc1CCc1ccccc1`, the IC50 came out at 4.5 µM.

As to `CN(CCCCOc1ccccc1CCc1ccccc1)CC(=O)O`, the IC50 amounted to 29 µM.

For `c1ccc(CCc2ccccc2OCCCCN2CCOCC2)cc1`, the half-maximal inhibitory concentration (IC50) came out at 19 µM.

As for `CN(C)CCCOc1ccccc1CCc1ccccc1`, the IC50 was found to be 0.54 µM.

As to `CN(CCCCOc1ccccc1CCc1ccccc1)Cc1ccccc1`, the half-maximal inhibitory concentration (IC50) was more than 50 µM.

As to `CN(C)CCCCOc1ccccc1CCc1ccccc1`, the IC50 was found to be 0.7 µM.

On to `NC(=O)C1CCN(CCCCOc2ccccc2CCc2ccccc2)CC1`, for which the IC50 amounted to 2.4 µM.

As to `O=C(O)C1CCCN1CCCCOc1ccccc1CCc1ccccc1` (centres undefined), the IC50 amounted to 18 µM.

Take `c1ccc(CCc2ccccc2OCCCCN2CCCC2)cc1`: the IC50 turned out to be 0.62 µM.

Turning to `OC1CCN(CCCCOc2ccccc2CCc2ccccc2)CC1`, the concentration for half-maximal inhibition (IC50) is 0.89 µM.

Consider `COc1cccc(CCc2ccccc2OCC(CN(C)C)OC(=O)CCC(=O)O)c1.Cl` (centres undefined) [SARPOGRELATE HYROCHLORIDE], for which the IC50 was 0.97 µM.
